These results are taken from patent US8466311B2, “Neuroprotective compositions and methods” (Sanford-Burnham Medical Research Institute, priority 2006, dated 2013).

In series [1] the target is T1, bovine serum albumin (BSA) (Bos taurus, UniProt P02769).
T1 construct: purchased WAKO Chemicals Inc. (Tokyo, Japan) or Sigma (St. Louis, Mo.)
As to the kind of experiment: Adduct formation with free cysteine of BSA (streptavidin blot). In kind it is binding. Particulars: PBS, room temperature, 5 h, streptavidin probe.
Method: We tested whether the free cysteine of bovine serum albumin (BSA) could form an adduct with NEPP compounds. If carbon #11 on the NEPP compounds binds to this free cysteine of BSA, then pretreatment with N-ethylmaleimide (NEM), in irreversible thiol alkylating agent, would abolish this binding. […] With streptavidin as a probe, we could then detect proteins bound to NEPP6-biotin. In order to study thiols as targets of NEPP binding, BSA (1 μg per lane) was incubated with various concentrations (0-1000 μM) of N-ethylmaleimide (NEM) for 30 minutes at room temperature. Vehicle or NEPP6-biotin (10 μM) in phosphate-buffered saline (PBS) was added and the mixture was incubated at room temperature for 5 h, subjected to sodium dodecyl sulfate polyacrylamide gel electrophoresis (SDS-PAGE), and probed with peroxidase-conjugated streptavidin. The gel was also stained with Coomassie brilliant blue.

Series [2] concerns mixed neuronal/glial cortical cultures. The series can be described thus: Site of accumulation of biotin-labeled compound in mixed neuronal/glial cortical cultures. In kind it is cell-based, rat. As to conditions: E17 DIV21. The procedure: Activation of the Keap1/Nrf2 pathway in Primary Cortical Cultures. To begin to test the effects of NEPP compounds on primary cerebrocortical neurons, we treated mixed neuronal/glial cortical cultures with NEPP6-biotin and then fixed and stained with rhodamine conjugated to streptavidin to determine the site of NEPP accumulation. Cortical cultures treated with NEPP6-biotin (10 μM) were stained with anti-MAP-2 monoclonal and rhodamine-conjugated streptavidin antibodies and with Hoechst 33,258 dye.
Immunocytochemistry. Cultures were fixed with 3% paraformaldehyde at room temperature for 20 min. After three washes in PBS, the cells were permeabilized with 0.3% Triton X-100 for 5 min. After three additional washes in PBS, the cells were incubated at 4° C. overnight with primary antibodies. They were then washed three times in PBS containing 0.2% Tween 20 (PBS-T), and next incubated with secondary antibodies for 1 h at room temperature. Thereafter, the cells were again washed, and their nuclei stained with Hoechst 33,258 (5 μg/ml) or with DAPI (1 μg/ml) for 5 min. Stained preparations were mounted and examined by epifluorescence microscopy. The following primary antibodies were used: anti-Nrf2 antibody, anti-MAP2 and anti-NeuN antibodies to identify neurons (dendrites and nuclei, respectively), and anti-S100β antibody to identify astrocytes. […]

For series [3], the target named is T2, Keap1 (Mus musculus, UniProt Q9Z2X8).
T2 construct: expressed in transfected cells; host or cells: COS7 cells
T2 sequence (Q9Z2X8 whole entry): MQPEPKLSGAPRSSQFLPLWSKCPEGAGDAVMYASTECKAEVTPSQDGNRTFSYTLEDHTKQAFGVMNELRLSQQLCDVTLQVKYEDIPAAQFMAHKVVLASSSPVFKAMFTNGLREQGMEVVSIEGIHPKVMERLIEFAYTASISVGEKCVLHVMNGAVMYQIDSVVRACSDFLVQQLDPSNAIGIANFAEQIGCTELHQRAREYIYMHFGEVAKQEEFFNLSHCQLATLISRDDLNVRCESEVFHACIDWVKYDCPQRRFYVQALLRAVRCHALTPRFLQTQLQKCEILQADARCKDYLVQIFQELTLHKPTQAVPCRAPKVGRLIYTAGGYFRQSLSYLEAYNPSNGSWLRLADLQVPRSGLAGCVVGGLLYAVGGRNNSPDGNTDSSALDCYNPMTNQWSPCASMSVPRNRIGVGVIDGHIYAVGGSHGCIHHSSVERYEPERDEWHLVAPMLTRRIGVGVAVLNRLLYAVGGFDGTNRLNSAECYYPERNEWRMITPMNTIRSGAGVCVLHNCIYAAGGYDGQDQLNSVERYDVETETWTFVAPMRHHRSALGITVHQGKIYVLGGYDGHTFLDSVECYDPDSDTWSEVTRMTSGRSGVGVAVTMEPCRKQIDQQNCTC
As to the kind of experiment: Binding of CAB/CA to Keap1 and Keap1 deletion mutants (streptavidin precipitation). As to conditions: COS7 cells, HA-WT Keap1, 10 μM CAB. Here is the method: (§1) (3) Expression vectors for HA-tagged Keap1 and Keap1 deletion mutants. These constructs were obtained from Dr. Akira Kobayashi of Tohoku University (Hosoya et al., J. Biol. Chem. 29:27244-27250, 2006; Kobayashi et al., Mol. Cell. Biol. 26:221-229, 2006).
(§2) Immunoprecipitation with agarose-immobilized streptavidin or antibody. PC12h cells (CAB- or vehicle-treated) were lysed in RIPA buffer supplemented with protease inhibitor cocktail. The lysates were centrifuged at 15,000 rpm for 10 min at 4° C., after which the supernatants were incubated with agarose-immobilized streptavidin at 4° C. for 1 h. Alternatively, for immunoprecipitation with anti-Keap1, the cell lysates were incubated with the antibody at 4° C. overnight, after which protein A immobilized on Sepharose CL-4B was added and incubation continued at 4° C. for 1 h. Then, the complexes were washed three times with rinse buffer (150 mM NaCl, 50 mM Tris-HCl [pH 7.5], 0.1% NP-40, 1 mM EDTA, and 0.02% NaN3). SDS sample buffer was added, the mixture was boiled for 5 min, and the supernatants were subjected to SDS-PAGE. Immunoblotting was then performed as described above.
(§3) CA activates the Keap1/Nrf2/ARE pathway. […] The initial reaction in this activation cascade is the binding of an electrophilic compound to specific cysteines on Keap1 protein (Hong et al., Chem. Res. Toxicol. 18: 1917-1926, 2005; Eggler et al., Proc. Nat. Acad. Sci. USA 102:10070-10075, 2005; Zhang et al., Mol. Cell. Biol. 10941-10953, 2004). Such binding initiates a cellular transcription pathway leading to induction of phase 2 enzymes (Talalay, Biofactors 12:5-11, 2000; Padmanabham et al., Mol. Cell 21:689-700, 2006; Itoh et al., Free Radic. Biol. Med. 36:1208-1213, 2004). Therefore, we examined the domains of Keap1 (designated BTB, IVR, and DGR) to determine those essential for binding to CA. Accordingly, for co-immunoprecipitation experiments, we transfected COS7 cells with DNA expressing either HA-tagged wild type Keap1 protein (HA-WT Keap1) or various deletion mutants of tagged Keap1 protein (HA-ΔBTB Keap1, HA-ΔIVR Keap1, and HA-ΔDGR Keap1). The transfected COS7 cells were then treated with vehicle or 10 μM CAB and lysed. We quantified the expression level of Keap1 protein in total cell lysates with anti-HA antibody. Each Keap1 mutant protein was expressed at a similar level of the predicted molecular weight (57 kDa for HA-ΔBTB Keap1, 53 kDa for HA-ΔIVR Keap1, and 37 kDa for HA-ΔDGR Keap1). Next, in order to detect Keap1/CAB complexes, we immunoprecipitated cell lysates with streptavidin and probed with anti-HA antibody. […] The requirement of the BTB domain for CA binding is in accord with prior results (Hong et al., Chem. Res. Toxicol. 18:1917-1926, 2005; Eggler et al., Proc. Nat. Acad. Sci. USA 102:10070-10075, 2005; Zhang et al., Mol. Cell. Biol. 24:10941-10953, 2004).
(§4) After binding of the electrophilic quinone-form of CA to Keap1 protein, activation of the Keap1/Nrf2 pathway requires nuclear translocation of Nrf2 (Talalay, Biofactors 12:5-11, 2000; Padmanabham et al., Mol. Cell 21:689-700, 2006; Itoh et al., Free Radic. Biol. Med. 36:1208-1213, 2004). Thus, we next examined the intracellular distribution of Nrf2 protein in COS7 cells by immunofluorescence.

Series [4] relates to Keap1. The description is as above. Particulars: COS7 cells, 10 μM CAB. Here is the method: as §1, §2, §3, §4
For the next series, the system named is ARE. As to the kind of experiment: ARE(GSTYa)-luciferase reporter in PC12h cells. In kind it is cell-based. Here is the method: (1) pGL3-GSTYa ARE core-luciferase vector. […] The dsDNA thus obtained was inserted into the Mlu l and Bglll sites of the pGL3-promoter vector (Promega Co., Madison, Wis.).
Transient transfection and measurement of luciferase activity. PC12h cells or cerebrocortical cultures (E17, DIV21) were incubated for 5 h in EBSS containing 1 μg of a plasmid DNA plus Lipofectamine 2000 (Invitrogen, Carlsbad, Calif.). Transfection efficiency was normalized to β-galactosidase activity expressed by co-transfection with pSV-β-gal (Promega). For reporter gene assays, cells were transfected with 1 μg of the reporter construct [ARE(GSTYa)-luciferase] and 0.2 μg pSV-β-gal for 1 hour. […] Firefly luciferase activity and β-galactosidase activity in cell lysates were measured using a Luciferase System and β-Galactosidase Enzyme Assay System, respectively (Promega, Madison, Wis.).
Next, we examined the involvement of the Keap1/Nrf2 pathway more precisely by studying activation of the ARE. This transcription element responds to the Keap1/Nrf2 pathway; we monitored activation of the ARE by performing luciferase reporter gene assays using PC12h cells transfected with ARE(GSTYa)-luciferase (Alam et al., J. Biol. Chem. 274:26071-26077, 1999) in the presence or absence of an Nrf2 dominant-negative (DN) or Keap1 expression vector.
(In general: A reporter such as luciferase makes a cellular process visible.)

The next series has as its system PC12h cells. The series can be described thus: Oxidative glutamate toxicity in PC12h cells (MTT assay). In kind it is cell-based. On the technique in general: Tetrazolium assays rely on reduction of a dye to a coloured formazan, in cell work by metabolically active cells.
In a further series the test system is GSH. As to the kind of experiment: Total GSH levels in cortical cultures. In kind it is cell-based. Particulars: NEM. The procedure:
Cell cultures, transfection, and glutathione (GSH) measurement. […] Transfection was performed with Lipofectamine 2000 (Invitrogen). In the reporter gene assays, firefly luciferase activity in cell lysates was measured with a luminometer (Promega). Total GSH (reduced and oxidized) was determined as described (Lee et al., Biochem. Biophys. Res. Commun. 280:286-292, 2001).
One caveat to the mechanism of NEPP and other electrophilic compounds acting at the level of Keap1 to induce HO-1 transcription is that NEPP could potentially react indiscriminately with other thiol-containing compounds in cells. To approach this question, we assessed cellular glutathione (GSH) levels to determine whether NEPP11 would affect this abundant antioxidant thiol. Nepp11 or N-ethylmaleimide (NEM) was added at t=0 and levels of total GSH were measured at the indicated times. GSH content of control cortical cultures (set arbitrarily at 100%) was 46.8±4.5 nmol/mg protein. […] In fact, this scenario seems likely, because the Keap1/Nrf2 pathway regulates the expression of γ-GCL in addition to HO-1 (Itoh et al., Mol. Cell. Biol. 24:36-45, 2004). […]
Transfections were performed with Lipofectamine 2000 (Invitrogen), and firefly luciferase activity in cell lysates was measured with a luminometer in the reporter gene assays (Promega).

The test system of a further series is cerebrocortical neurons. As to the kind of experiment: NMDA-induced neuronal cell death (excitotoxicity) in cerebrocortical cultures. Particulars: ZnPP 10 μM added simultaneously with NEPP11.

Each structure is given as a SMILES string.

T1 sequence (P02769 25-607): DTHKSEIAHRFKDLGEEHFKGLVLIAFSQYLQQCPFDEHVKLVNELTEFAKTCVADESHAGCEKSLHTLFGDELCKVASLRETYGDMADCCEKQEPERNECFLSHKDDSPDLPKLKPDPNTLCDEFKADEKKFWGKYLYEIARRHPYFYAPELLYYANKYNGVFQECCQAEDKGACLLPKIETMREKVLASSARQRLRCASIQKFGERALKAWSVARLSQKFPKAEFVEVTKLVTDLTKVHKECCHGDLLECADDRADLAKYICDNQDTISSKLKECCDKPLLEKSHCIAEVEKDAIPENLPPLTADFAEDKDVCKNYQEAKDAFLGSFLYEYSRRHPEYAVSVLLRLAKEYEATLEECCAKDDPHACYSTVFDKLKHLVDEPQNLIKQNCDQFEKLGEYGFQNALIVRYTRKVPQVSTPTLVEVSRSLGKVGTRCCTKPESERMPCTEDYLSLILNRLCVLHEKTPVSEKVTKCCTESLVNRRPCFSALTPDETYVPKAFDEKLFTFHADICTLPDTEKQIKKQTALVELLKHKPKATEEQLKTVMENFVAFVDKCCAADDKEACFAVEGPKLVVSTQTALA
Method for cerebrocortical neurons: We stained the cultures with both anti-MAP-2 and anti-NeuN monoclonal antibodies to label neuronal dendrites and nuclei, respectively. Vehicle or NEPP11 (0.7 μM) was added to cerebrocortical cultures (E17 and DIV14-21) 60 min before treatment with NMDA (50 μM) for 15 min. The cultures were then incubated for 20 h and subsequently stained with anti-MAP-2 and anti-NeuN and with Hoechst dye. Apoptotic nuclei were identified by morphological changes seen with Hoechst staining. […] We also added zinc protoporphyrin (ZnPP, 10 μM), a relatively specific HO-1 antagonist, simultaneously with NEPP11. The number of apoptotic neurons was assessed by determining the apoptotic index [(number of condensed nuclei in MAP-2 or NeuN-positive cells)/(number of total MAP-2 or NeuN-positive cells)×100%], as reported by Bonfoco et al. (Proc. Natl. Acad. Sci. USA 92:7162-7166, 1995).
Cerebrocortical cultures were prepared from embryonic day-17 Sprague-Dawley rats and used at day 14-21 in vitro (DIV14-21), as described (Bonfoco et al., Proc. Natl. Acad. Sci. USA 92:7162-7166, 1995). To induce predominantly neuronal apoptosis (rather than necrosis), we exposed cortical cultures to 50 mM NMDA plus 5 mM glycine/1.8 mM CaCl2 in nominally Mg^2+-free Earle's balanced salt solution for 15 min (Bonfoco et al., Proc. Natl. Acad. Sci. USA 92:7162-7166, 1995). After exposure to NMDA, the cultures were returned to normal medium containing vehicle or NEPP11 and incubated for 20 hr before analyzing cell survival. To assess the ability of NEPP compounds to block NMDA-induced neuronal apoptosis, we identified apoptotic neurons by double immunofluorescence with anti-NeuN and anti-MAP-2 to specifically label neurons and with Hoechst staining for nuclear morphology to detect apoptosis. The percentage of neurons and non-neuronal cells in our cultures was 33.6±4.9% and 66.4±4.4% (n=4), respectively.
In addition, we used mature cortical cultures (E17, DIV21) to assess excitotoxicity because functional NMDA receptors are expressed on these neurons.

Take `CC(C)c1cc2c(c(O)c1O)C1(C(=O)NCCCCCNC(=O)CCCCC3SCC4NC(=O)NC43)CCCC(C)(C)C1CC2` (stereo not shown) [CAB]: the “adduct formation with BSA” value in series [1] is “a single band (68 kDa) corresponding to the complex of BSA and CAB was detected”. Besides, the “site of accumulation at low concentration” value in series [2] (CAB 3 μM) is reported as “non-neuronal cells were strongly positive”. The “site of accumulation at higher concentration” value in series [2] (CAB 10 μM) is on record as “neurons were also labeled”. For the same compound, the “binding to Keap1-WT (73-kDa protein)” value at Keap1 [3] is on record as “observed in cells treated with CAB”. In the series with Keap1 [4], the “binding to IVR Keap1” value is “very little binding”, the “binding to ΔBTB Keap1” value was “no binding at all” and the “binding to ΔDGR Keap1” value was “strong binding”. For the same compound, in the series with ARE (20 μM CAB versus 10 μM CA), the “ARE activation relative to CA” value is on record as “to a much lesser extent”. In addition, in the series with ARE (PC12h cells, CAB), the “activation of the ARE” value is reported as “significantly activated the ARE”. In addition, the “level required to protect PC12h cells, relative to CA” value with PC12h cells is “a greater level of CAB than CA was required”.

Consider `CCN1C(=O)C=CC1=O` [NEM, N-ethylmaleimide, reference compound], for which the “outcome for neurons in cortical cultures” value with GSH is “neuronal death after 24 h”.

Take `C=CC1=C(C)c2cc3[n-]c(cc4nc(cc5[n-]c(cc1n2)c(C)c5C=C)C(C)=C4CCC(=O)O)c(CCC(=O)O)c3C.[Zn+2]` [ZnPP, zinc protoporphyrin, reference compound]: the “effect of HO-1 antagonist on neuroprotection by NEPP11” value in the series on cerebrocortical neurons is reported as “abrogated the neuroprotective effect of NEPP11”.

Regarding `C[S+]([O-])CCCCN=C=S` (stereo not shown) [sulforaphane, reference compound], in the series with PC12h cells, the “protection of PC12h cells against oxidative glutamate toxicity” value was “did not protect”.
